Data as given in patent US20230139883A1, “Peptides for Inducing Differentiation” (Shimadzu Corporation, priority 2020, published 2023).

B1: 100nX-Dimer: a dimerized peptide of 100nX (SEQ ID NO: 9) (peptide)
chain 1: CAAELAALEAELAALEGVPGDNNGTRGKLYHLKNKLHRLKNAC
chain 2: CAAELAALEAELAALEGVPGDNNGTRGKLYHLKNKLHRLKNAC
modifications: dimerized

What was measured:
FGFR3 = test: Phage display selection against FGFR3 with Miseq analysis of the bound phages; assay type: binding; conditions: for 1 nM Num. of reads: phage library after panning Round 4, bound to 1 nM FGFR3; for 10 nM Num. of reads: phage library after panning Round 4, bound to 10 nM FGFR3; for 100 nM Num. of reads: phage library after panning Round 4, bound to 100 nM FGFR3; for 1 nM Ranking / 10 nM Ranking / 100 nM Ranking: rank by number of reads; for 1 nM Ranking: 1 nM FGFR3; for 10 nM Ranking: 10 nM FGFR3; for 100 nM Ranking: 100 nM FGFR3
Protocol: The collected phage library was mixed with 100 nM of FGFR3 solution and allowed to react overnight at 4° C. (Table 9: Panning Round 1). After the reaction, the binding phages were captured by magnetic beads modified with protein A, and washed three times with PBS-T, followed by eluting the bound phages with Gly-HCl (pH 2.0). After neutralizing with 2M Tris, the pages were infected to E. coli (TG1 strain). After 4 hours of incubation, helper phages were added, and the E. coli (TG1 strain) were allowed to produce phages overnight. Next, phage solution was prepared from the culture supernatant. The prepared phage solution was mixed with FGFR3 solution and allowed to react overnight at 4° C. (Table 9: Panning Round 2). After the reaction, the bound phages were eluted. Phage solution prepared in the same way was mixed with FGFR3 solution and allowed to react at 4° C. for 1 hour (Table 9: Panning Round 3). After the reaction, the bound phages were eluted. This operation was further repeated, and after Panning Round 4, the bound phages were eluted. Note that as the rounds proceeded, the number of washes with PBS-T was increased. (Table 9). The titer of the Output phage in each round was also determined. The titer of phage was determined from the number of colonies obtained by incubating the E. coli TG1 strain contacted with the phage at 37° C. overnight. The phage library eluted after panning of Example 7 (Table 9: Input phage (Round 4)) was subjected to Human IgG Fc-immobilized plate, and negative selection was performed by collecting unbound phages. The phage library was then acted to FGFR3 prepared to concentrations of 100 nM, 10 nM, and 1 nM. Bound phages were then collected. The genomic DNA of the collected phages was extracted, samples were prepared according to Illumina's protocol for Miseq, and a comprehensive analysis of the phage genomic DNA was performed. Among the sequences obtained, 20 sequences high incidence rates were selected (Table 11). The yeast cells acquired in the screening of Example 8 were seeded onto SDCAA agar plates and cultured. Fourteen single colonies formed on the agar plates were randomly selected, and for each clone, the peptide DNA sequence incorporated into the yeast expression plasmid was analyzed using the Sanger method (Table 12).

FGFR2 = test: Yeast display screening (MACS/FACS) against FGFR2 with Sanger sequencing of single colonies; assay type: binding; conditions: frequency of the clone among randomly selected single colonies after FGFR2 screening
Protocol: Cells were then charged to an LS column attached to a magnetic stand. In order to remove yeast cells not bound to FGFR2, 7 mL of PBSM was flowed through the LS column twice. The LS column was then removed from the magnetic stand and FGFR2-binding yeast clones were collected by flowing SDCAA medium and cultured. The above operations were deemed as one round, and a total of three rounds were performed (Table 10). Next, yeast clones with high binding activity were screened from the yeast collected by MACS, using FACS (Fluorescence-activated cell sorting). FGFR2-Fc and mouse anti-FLAG antibodies were bound to the yeast library, followed by binding of anti-mouse IgG-Alexa488 and anti-human Fc antibody-Alexa647. […] The binding of the peptide to FGFR2 can also be detected by the fluorescence intensity of Alexa647. With that, yeast clones with high fluorescence intensities of Alexa488 and Alexa647 were collected by FACS cell sorter (BD FACS AriaIII).
The phage library eluted after panning of Example 7 (Table 9: Input phage (Round 4)) was subjected to Human IgG Fc-immobilized plate, and negative selection was performed by collecting unbound phages. The phage library was then acted to FGFR3 prepared to concentrations of 100 nM, 10 nM, and 1 nM. Bound phages were then collected. The genomic DNA of the collected phages was extracted, samples were prepared according to Illumina's protocol for Miseq, and a comprehensive analysis of the phage genomic DNA was performed. Among the sequences obtained, 20 sequences high incidence rates were selected (Table 11). The yeast cells acquired in the screening of Example 8 were seeded onto SDCAA agar plates and cultured. Fourteen single colonies formed on the agar plates were randomly selected, and for each clone, the peptide DNA sequence incorporated into the yeast expression plasmid was analyzed using the Sanger method (Table 12).

iPS-hFB [1] = test: Differentiation induction of iPS cells into cardiomyocytes: observation of beating cell clusters; conditions: Example 3: 0.05 μM peptide + Activin A on Day 1, no bFGF
iPS-hFB [2] = test: Differentiation induction of iPS cells into cardiomyocytes: RT-qPCR of cardiomyocyte markers cTNT and Actinin; conditions: Day 23
[3] = Example 3, protocol 5, 0.05 μM, compared to protocols 1, 3, 4 or 6

Row | Molecule | 1 nM Num. of reads (FGFR3) | 10 nM Num. of reads (FGFR3) | 100 nM Num. of reads (FGFR3) | 1 nM Ranking (FGFR3) | 10 nM Ranking (FGFR3) | 100 nM Ranking (FGFR3) | Frequency (FGFR2) | other results
1 | CAAELAALEAELAALEGEVNMTRARAGKLLVLKVKLHGLKQAC [F3-100n504] | 1062 | 741 | 1006 | 18 | 21 | 21 |  | 
2 | CAAELAALEAELAALEGGAFLTVGRAGKLMMLKQKLVRLKCAC [F3-100n117] | 1355 | 948 | 1188 | 9 | 9 | 12 |  | 
3 | CAAELAALEAELAALEGGAPVTIMGVGKLMVLKEKLRNLKDAC [F3-100n16] | 1095 | 647 | 775 | 16 | 26 | 33 |  | 
4 | CAAELAALEAELAALEGGGGGGG----FLRNLHIKLYLLQFAC [FGFR_Y07] |  |  |  |  |  |  | 1 | 
5 | CAAELAALEAELAALEGGGGGGG----KLMDLHYQLYNLFIAC [FGFR_Y01] |  |  |  |  |  |  | 1 | 
6 | CAAELAALEAELAALEGGRDRTLELSGKLLVLKSKLHWLKHAC [F3-100n251] | 3203 | 2387 | 3153 | 2 | 1 | 2 |  | 
7 | CAAELAALEAELAALEGGRTPVVTTMGKLMGLKLKLQQLKRAC [F3-100n322] | 1234 | 813 | 1061 | 12 | 16 | 18 |  | 
8 | CAAELAALEAELAALEGKDFRTIELVGKLVLLKYKLNNLKEAC [F3-100n548] | 1248 | 873 | 1088 | 11 | 13 | 17 |  | 
9 | CAAELAALEAELAALEGKEHPTLRTSGKLLHLKLKLHELKRAC [F3-100n131] | 2801 | 2079 | 2648 | 3 | 4 | 3 |  | 
10 | CAAELAALEAELAALEGLDYHTVLSTGKLMVLKRKLNILKLAC [F3-100n250] | 966 | 856 | 1096 | 20 | 14 | 16 |  | 
11 | CAAELAALEAELAALEGLHTLTLMQTGKLLVLKMKLRELKWAC [F3-100n192] | 1100 | 707 | 857 | 15 | 23 | 28 |  | 
12 | CAAELAALEAELAALEGPPRPHLPPLGKLFLLKFKLYLLKGAC [FGFR_Y09] |  |  |  |  |  |  | 1 | 
13 | CAAELAALEAELAALEGPSRVGSRRRGKLNLLKYKLHGLKLAC [FGFR_Y13] |  |  |  |  |  |  | 1 | 
14 | CAAELAALEAELAALEGQKHFTLGGLGKLIVLKKQLRILKCAC [F3-100n174] | 1668 | 1223 | 1811 | 8 | 7 | 6 |  | 
15 | CAAELAALEAELAALEGRPVRTVLTNGKLMVLKSKLQELKHAC [F3-100n182] | 1723 | 1143 | 1423 | 7 | 8 | 8 |  | 
16 | CAAELAALEAELAALEGRTFTIGEVKGKLQGLIMKLHHLKDAC [F3-100n116] | 1895 | 2291 | 3236 | 6 | 2 | 1 |  | 

Row | Molecule | 1 nM Num. of reads (FGFR3) | 10 nM Num. of reads (FGFR3) | 100 nM Num. of reads (FGFR3) | 1 nM Ranking (FGFR3) | 10 nM Ranking (FGFR3) | 100 nM Ranking (FGFR3) | Frequency (FGFR2) | other results
17 | CAAELAALEAELAALEGSTARTLMQVGKLEMLKYKLLELKCAC [F3-100n3] | 1084 | 613 | 850 | 17 | 29 | 29 |  | 
18 | CAAELAALEAELAALEGVKELTLGTVGKLMSLKYKLWSLKQAC [F3-100n410] | 2547 | 1717 | 2279 | 4 | 5 | 5 |  | 
19 | CAAELAALEAELAALEGVRPETMSQVGKLLVLKHRLGQLKRAC [F3-100n9] | 3326 | 2152 | 2566 | 1 | 3 | 4 |  | 
20 | CAAELAALEAELAALEVGRVKTLGRYGKLMVLKHQLRNLKCAC [F3-100n161] | 1045 | 903 | 1261 | 19 | 10 | 9 |  | 
21 | CAHHLASLEYDLAILEGGDGGGG----HLARLKRQLAELKNAC [FGFR_Y16] |  |  |  |  |  |  | 1 | 
22 | CAKELLALKRELKALQGGGGGGG----KLRALQLKLYALLLAC [FGFR_Y11] |  |  |  |  |  |  | 2 | 
23 | CALELLALRGELEALRGGGGGGG----KLGALHLKLFALQWAC [FGFR_Y08] |  |  |  |  |  |  | 1 | 
24 | CAQELRALLRELQALGGGGGGGG----KLGALVFKLYALMLAC [FGFR_Y15] |  |  |  |  |  |  | 1 | 
25 | CAQELVALHMELRALGGGGGGGG----KLQALYLKLFALDHAC [FGFR_Y04] |  |  |  |  |  |  | 1 | 
26 | CARELQALGKELKALKGGGGGGG----KLRALQLKLYALQVAC [FGFR_Y10] |  |  |  |  |  |  | 1 | 
27 | CARELQALLKELQALGGGGGGGG----KLLALFVKLYALRLAC [FGFR_Y02] |  |  |  |  |  |  | 1 | 
28 | CARELRALRRELRALQGGGGGGG----KLHALHRKLFALMVAC [FGFR_Y06] |  |  |  |  |  |  | 1 | 
29 | CAVELYALHRELYALYGGGGGGS----KLYALYLKLLALQLAC [FGFR_Y05] |  |  |  |  |  |  | 1 | 
30 | CPRELEALRRELGALMGGGGGGG----KLNALMLKLYALHNAC [FGFR_Y14] |  |  |  |  |  |  | 1 | 
31 | B1 |  |  |  |  |  |  |  | day on which beating cell clusters were observed (iPS-hFB [1]): 11 days; ACTN2 expression level (iPS-hFB [2]; [3]): significantly increased; cTNT expression level (iPS-hFB [2]; [3]): significantly increased; gene expression levels (cTNT, ACTN2) (iPS-hFB [2]; Example 4: peptide in combination with bFGF, compared to conventional protocol 1): significantly increased
